Reference: publication PMC9127186, “Molecular Basis Underlying Hepatobiliary and Renal Excretion of Phenolic Acids of Salvia miltiorrhiza Roots (Danshen)” (Frontiers in Pharmacology, 2022)

Key:
[1] = target: T1, human OCT1 (Homo sapiens, UniProt O15245); assay: Cellular transport assay, HEK-293 cells expressing human OCT1; details: Danshen phenolic acid at 100 μM final concentration, 10 min; human OCT1-transfected vs mock cells
T1 sequence (O15245 1-554): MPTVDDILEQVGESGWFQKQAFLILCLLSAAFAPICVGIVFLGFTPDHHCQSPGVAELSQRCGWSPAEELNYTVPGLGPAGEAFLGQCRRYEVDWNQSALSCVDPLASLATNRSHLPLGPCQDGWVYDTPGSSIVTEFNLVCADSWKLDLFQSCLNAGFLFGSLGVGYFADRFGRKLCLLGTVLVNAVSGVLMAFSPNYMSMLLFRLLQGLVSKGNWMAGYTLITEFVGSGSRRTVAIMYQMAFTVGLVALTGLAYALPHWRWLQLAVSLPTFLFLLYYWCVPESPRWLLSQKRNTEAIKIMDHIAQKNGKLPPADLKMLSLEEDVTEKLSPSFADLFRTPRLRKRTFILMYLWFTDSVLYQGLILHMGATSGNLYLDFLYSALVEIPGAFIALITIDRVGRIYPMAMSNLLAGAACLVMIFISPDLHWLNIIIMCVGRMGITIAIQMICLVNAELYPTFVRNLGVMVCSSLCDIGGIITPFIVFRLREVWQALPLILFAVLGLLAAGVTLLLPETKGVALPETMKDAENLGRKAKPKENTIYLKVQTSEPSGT

[2] = target: T2, human PEPT1 (Homo sapiens, UniProt P46059); assay: Cellular transport assay, HEK-293 cells expressing human PEPT1; details: Danshen phenolic acid at 100 μM final concentration, 10 min, incubation pH 6.0; human transporter PEPE1 [sic], transfected vs mock cells
T2 sequence (P46059 1-708): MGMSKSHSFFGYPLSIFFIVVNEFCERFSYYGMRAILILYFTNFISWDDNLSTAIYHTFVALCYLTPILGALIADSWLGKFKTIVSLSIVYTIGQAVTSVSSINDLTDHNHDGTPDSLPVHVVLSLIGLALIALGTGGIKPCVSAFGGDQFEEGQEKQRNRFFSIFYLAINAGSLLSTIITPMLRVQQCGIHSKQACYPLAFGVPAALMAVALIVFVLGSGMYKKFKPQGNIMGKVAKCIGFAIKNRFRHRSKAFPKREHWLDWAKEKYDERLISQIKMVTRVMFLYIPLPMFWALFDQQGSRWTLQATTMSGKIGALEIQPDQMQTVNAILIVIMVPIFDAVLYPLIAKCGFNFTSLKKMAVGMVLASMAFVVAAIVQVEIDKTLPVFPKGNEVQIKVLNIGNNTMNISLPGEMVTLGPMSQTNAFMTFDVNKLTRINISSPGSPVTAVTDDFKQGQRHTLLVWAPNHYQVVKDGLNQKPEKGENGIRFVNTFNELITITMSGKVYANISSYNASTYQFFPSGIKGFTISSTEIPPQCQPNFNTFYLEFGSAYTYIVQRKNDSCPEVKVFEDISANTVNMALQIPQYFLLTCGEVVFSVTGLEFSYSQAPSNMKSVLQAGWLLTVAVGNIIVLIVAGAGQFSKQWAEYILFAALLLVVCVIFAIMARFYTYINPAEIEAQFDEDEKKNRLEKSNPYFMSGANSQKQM

[3] = target: T3, rat Ntcp (Rattus norvegicus, UniProt P26435); assay: Cellular transport assay, HEK-293 cells expressing rat Ntcp; details: Danshen phenolic acid at 100 μM final concentration, 10 min; rat Ntcp-transfected vs mock cells
T3 sequence (P26435 1-362): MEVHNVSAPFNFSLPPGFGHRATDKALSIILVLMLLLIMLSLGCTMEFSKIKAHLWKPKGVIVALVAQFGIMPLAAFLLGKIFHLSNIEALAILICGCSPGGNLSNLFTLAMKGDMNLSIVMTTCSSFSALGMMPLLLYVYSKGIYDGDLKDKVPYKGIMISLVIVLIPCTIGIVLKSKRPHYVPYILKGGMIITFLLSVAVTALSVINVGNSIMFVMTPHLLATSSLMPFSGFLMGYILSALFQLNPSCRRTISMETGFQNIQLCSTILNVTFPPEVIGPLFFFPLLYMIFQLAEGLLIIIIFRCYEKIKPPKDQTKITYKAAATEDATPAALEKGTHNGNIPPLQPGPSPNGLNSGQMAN

[4] = target: T4, rat Oct2 (Rattus norvegicus, UniProt Q9R0W2); assay: Cellular transport assay, HEK-293 cells expressing rat Oct2; details: Danshen phenolic acid at 100 μM final concentration, 10 min; rat Oct2-transfected vs mock cells
T4 sequence (Q9R0W2 1-555): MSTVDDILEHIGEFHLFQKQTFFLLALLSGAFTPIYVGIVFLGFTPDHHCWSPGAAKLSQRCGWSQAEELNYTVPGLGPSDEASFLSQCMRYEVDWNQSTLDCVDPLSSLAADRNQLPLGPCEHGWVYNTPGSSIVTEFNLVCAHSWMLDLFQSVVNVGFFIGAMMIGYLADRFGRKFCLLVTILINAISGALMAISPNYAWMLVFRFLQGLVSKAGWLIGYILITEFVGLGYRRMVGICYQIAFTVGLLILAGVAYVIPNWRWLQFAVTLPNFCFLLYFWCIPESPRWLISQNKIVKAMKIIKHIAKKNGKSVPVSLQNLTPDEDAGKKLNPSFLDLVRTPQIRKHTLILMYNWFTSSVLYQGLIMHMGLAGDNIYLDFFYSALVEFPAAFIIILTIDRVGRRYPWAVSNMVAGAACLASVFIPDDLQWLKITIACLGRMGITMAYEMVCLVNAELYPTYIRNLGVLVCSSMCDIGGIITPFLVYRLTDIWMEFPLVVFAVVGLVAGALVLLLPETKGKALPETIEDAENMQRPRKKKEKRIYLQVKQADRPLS

Row | Compound | TransportTC/TransportMC ratio (net transport ratio) [1] | TransportTC/TransportMC ratio (net transport ratio) [2] | TransportTC/TransportMC ratio (net transport ratio) [3] | TransportTC/TransportMC ratio (net transport ratio) [4]
1 | O=C(/C=C/c1ccc(O)c2c1[C@H](C(=O)O)[C@@H](c1ccc(O)c(O)c1)O2)O[C@H](Cc1ccc(O)c(O)c1)C(=O)O [Lithospermic acid, lithospermic acid] | 1.56 ± 0.26 | 1.86 ± 0.36 | 1.71 ± 0.15 | 1.11 ± 0.32
2 | O=C(O)c1ccc(O)c(O)c1 [Protocatechuic acid, protocatechuic acid] | 1.09 ± 0.33 | 0.93 ± 0.34 | 1.04 ± 0.27 | 0.92 ± 0.08
3 | O=C(O)Cc1c(/C=C/C(=O)O[C@H](Cc2ccc(O)c(O)c2)C(=O)O)ccc(O)c1O [Salvianolic acid D, salvianolic acid D] | 1.04 ± 0.24 | 1.06 ± 0.20 | 1.49 ± 0.23 | 1.44 ± 0.24
4 | salvianolic acid B | 1.03 ± 0.07 | 2.05 ± 0.22 | 1.90 ± 0.02 | 1.08 ± 0.21
